Reference: patent EP1262195A1, “VASOACTIVE AGENTS” (Takeda Chemical Industries, Ltd., priority 2000, dated 2001)

What was measured:
human GPR14 = molecular target: T1, human GPR14 (Homo sapiens, UniProt Q9UKP6); assay: Inhibition of binding of [125I]-labeled human urotensin II to GPR14 using human GPR14-expressing CHO cell membrane fraction; conditions: concentration showing 50% inhibition of human GPR14 binding activity, 1nM [125I]-labeled human urotensin II, 25°C for 3 hours, read-out: Inhibitory concentration
T1 construct: expressed in transfected cells
T1 sequence (Q9UKP6 1-389): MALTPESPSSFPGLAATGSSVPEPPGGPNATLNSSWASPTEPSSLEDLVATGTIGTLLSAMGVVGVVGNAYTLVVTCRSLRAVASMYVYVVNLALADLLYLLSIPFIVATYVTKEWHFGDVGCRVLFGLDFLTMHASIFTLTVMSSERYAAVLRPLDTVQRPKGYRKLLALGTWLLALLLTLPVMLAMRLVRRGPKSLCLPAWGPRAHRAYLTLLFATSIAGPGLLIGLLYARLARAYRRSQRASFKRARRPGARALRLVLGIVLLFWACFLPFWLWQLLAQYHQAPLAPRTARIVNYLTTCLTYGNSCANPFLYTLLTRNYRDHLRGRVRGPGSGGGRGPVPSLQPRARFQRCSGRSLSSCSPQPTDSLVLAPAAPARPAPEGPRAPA
Description: To 1 x 10^8 CHO/GPR14 cells were added 10 ml of homogenate buffer (10 mM NaHCO3, 5 mM EDTA, 0.5 mM PMSF, 1µg/ml pepstatin, 4µg/ml E64, 20µg/ml leupeptin), and disrupted using Polytron (12,000 rpm, 1 minute). Cell debris solution was centrifuged at 1,000g for 15 minutes to obtain a supernatant. The supernatant was then […] (in Beckman type 30 rotor, 30,000 rpm, 1 hour), and the resultant precipitant was collected as human GPR14-expressing CHO cell fraction.
Isotope-labeled human urotensin II to be used in experiments for testing inhibition of binding was prepared as described below. 5 µg of human urotensin II (available from Peptide Institute, Inc.) was dissolved in 25µl of 0.4M sodium acetate (pH 5.6). […]
Human GPR14-expressing CHO cell fraction was diluted in a membrane diluting buffer (20mM phosphate buffer (pH7.3), 150mM NaCl, 5mM MgCl2,0.1% BSA, 0.05% CHAPS, 0.5mM PMSF, 0.1µg/ml Pepstatin, 20µg/ml Leupeptin, 4µg/ml E-64) to prepare a solution of cell membrane fraction (protein concentration:3µg/ml) for assay. […] Next, the filter was washed three times with membrane diluting buffer (0.2ml), added with 20µl of Microscinti 20 (Packard), and determined for radioactivity in Topcount (Packard). Specific-binding is calculated by subtracting non-specific binding from the total binding. […]

[1] = molecular target: T2, human GPR14-expressing CHO cell (Homo sapiens, UniProt Q9UKP6); assay: Change in intracellular calcium concentration in human GPR14-expressing CHO cells (FLIPR), antagonist activity assay; type: cell-based; conditions: 10µl of 10nM urotensin II added, Fluo3, FLIPR
T2 construct: expressed in transfected cells
T2 sequence (Q9UKP6 1-389): T1 sequence (Q9UKP6 1-389)
Description: After the transformant E. coli DH5α/pcDNA3.1-hGPR14 prepared in Reference Example 2 was cultured, plasmid DNA for pcDNA3.1-hGPR1 was prepared by using Plasmid Midi Kit (Qiagen). The plasmid DNA was introduced into CHO dhfr cells using CellPhect Transfection Kit (Amersham Pharmacia Biotech) according to the protocol appended thereto. 10µg of DNA was co-precipitated with calcium phosphate to prepare a suspension which was then added to a 10cm petri dish on which 5 x 10^5 or 1 x 10^6 CHO dhfr^- cells had previously been inoculated 24 hours before then. Cells were cultured in a MEMα medium containing 10% fetal bovine serum for one day, subcultured, and cultured in a selection medium, a MEMα medium containing 0.4 mg/ml G418 (GIBCO BRL) and 10% dialysis fetal bovine serum. Colonies of transformed cells (CHO/hGPR14), which were human GPR14-expessing CHO cells growing in the selection medium, were selected.
GPR14-expressing CHO cells were inoculated on a 96-well plate at 1×10^4 cell/well, cultured for 48 hours, and then washed with 0.1ml of HBSS containing 20mM HEPES(pH7.4), 1% FCS and 1% penicillin-streptomycin (hereinafter referred to as "wash buffer"). Next, 100µl of another wash buffer containing 4µM Fluo3, 0.04% pluronic acid and 2.5mM probenicid (hereinafter referred to as "reaction buffer") was added thereto for reaction at 37°C for 1 hour. […]

Row | IC50 (human GPR14) [nM] | Compound | urotensin II-induced increase in intracellular calcium concentration [1]
1 | 2.4 | Nc1c2c(nc3ccc(Br)cc13)N(Cc1ccccc1)CC2 [compound 2] | inhibited
2 | – | 1-benzyl-6-bromo-2,3-dihydro-1H-pyrrolo [2,3-b] quinoline-4-ylamine [Synthesis Example 1] | inhibited
3 | 33 | Nc1c2c(nc3ccccc13)N(Cc1ccccc1)CC2 [compound 3] | –
